Assay results from patent publication US20130143800A1, “COMBINATION THERAPIES TO TREAT DIABETES” (RESEARCH DEVELOPMENT FOUNDATION, priority 2011, published 2013).
Read-outs that look alike come from different tables or passages of the source.

How the values were obtained:
HIF1α [1] = experiment: Immunoblot of HIF1α in INS-1 cells; type: cell-based, rat
Protocol: (§1) Immunoblot and immunoprecipitation: Immunoblots were performed as described (Dentin et al., 2008). For immunoprecipitations, cell lysates were incubated with primary antibody and 25 μl of a 50% slurry of protein G agarose beads for 4 hours with rotation at 4° C. Immunoprecipitates were washed with lysis buffer and denatured by boiling in 20 μl SDS sample buffer.
(§2) INS-1 insulinoma cells were cultured in RPMI 1640 (Mediatech) with 10% heat inactivated fetal bovine serum (Sigma), 2 mM glutamine (Mediatech), 1 mM sodium pyruvate (Mediatech), 100 μg/ml penicillin-streptomycin (Mediatech) and 0.05 mM β-mercaptoethanol. HEK 293T cells were cultured in DMEM (Mediatech) with 10% fetal bovine serum and 100 μg/ml penicillin-streptomycin. Forskolin (10 μM), LY294002 (50 μM), and DMOG (1 mM) were added to cells as indicated. Cells were exposed to rapamycin (50 nM) or to cycloheximide (100 μg/ml) overnight. For glucose and Exendin-4 treatments, INS-1 cells were glucose and serum starved for 1 hour, and stimulated with glucose or 2-deoxyglucose (20 mM) with or without Exendin-4 (10 nM). HEK 293T cells were transfected with polyethylenimine (PEI) and INS-1 cells with Lipofectamine2000 (Invitrogen; 11668-019). For HIF-1α translational reporter experiment, INS-1 cells were transfected with pLUXHIF1α5′UTR or pLUX control vector (generous gift of John Blenis). After 24 hours, cells were exposed to rapamycin overnight where indicated. After forskolin treatment, cells were harvested for Renilla/firefly luciferase activity. […]

HIF1α [2] = experiment: Immunoblot of HIF1α in primary hepatocytes; type: cell-based; details: cultured primary hepatocytes
HIF = experiment: HRE-luc reporter in primary hepatocytes; type: cell-based; details: cultured primary hepatocytes
Text: Plasmids expressing cDNAs for HA-HIF-1α […]/P564A (18955) were purchased from Addgene. HRE-LUC reporter construct was generously provided by Randall Johnson (UCSD).

[3] = tested on: hypoxia-inducible factor (HIF); experiment: HRE-luc reporter transient assay in INS-1 cells; type: cell-based, rat
Protocol: (§3) INS-1 insulinoma cells were cultured in RPMI 1640 (Mediatech) with 10% heat inactivated fetal bovine serum (Sigma), 2 mM glutamine (Mediatech), 1 mM sodium pyruvate (Mediatech), 100 μg/ml penicillin-streptomycin (Mediatech) and 0.05 mM β-mercaptoethanol. HEK 293T cells were cultured in DMEM (Mediatech) with 10% fetal bovine serum and 100 μg/ml penicillin-streptomycin. Forskolin (10 μM), LY294002 (50 μM), and DMOG (1 mM) were added to cells as indicated. Cells were exposed to rapamycin (50 nM) or to cycloheximide (100 μg/ml) overnight. For glucose and Exendin-4 treatments, INS-1 cells were glucose and serum starved for 1 hour, and stimulated with glucose or 2-deoxyglucose (20 mM) with or without Exendin-4 (10 nM). HEK 293T cells were transfected with polyethylenimine (PEI) and INS-1 cells with Lipofectamine2000 (Invitrogen; 11668-019). For HIF-1α translational reporter experiment, INS-1 cells were transfected with pLUXHIF1α5′UTR or pLUX control vector (generous gift of John Blenis). After 24 hours, cells were exposed to rapamycin overnight where indicated. After forskolin treatment, cells were harvested for Renilla/firefly luciferase activity. Normalized luciferase activities are shown.
Plasmids expressing cDNAs for HA-HIF-1α P402A/P564A (18955) were purchased from Addgene. HRE-LUC reporter construct was generously provided by Randall Johnson (UCSD).

mTORC1 = experiment: Immunoblot of phospho-S6 in INS-1 cells; type: cell-based, rat; details: co-incubation of mTOR inhibitor with FSK
Protocol: as §1
as §2, with “Blenis).” for “Blenis). After 24 hours, cells were exposed to rapamycin overnight where indicated. After forskolin treatment, cells were harvested for Renilla/firefly luciferase activity.”

INS-1 cells = experiment: Cell size determination in INS-1 cells; type: cell-based, rat; details: co-incubation with FSK
Protocol: For cell size measurements, INS-1 cells were plated on 6 cm dishes, treated as indicated, trypsinized and resuspended in PBS. Cell diameter was measured using a particle size counter.

INS-1 insulinoma cells = experiment: Gene profiling and Q-PCR of cAMP inducible genes in INS-1 cells; type: cell-based, rat; details: INS-1 cells exposed to FSK
Protocol: as §3
Gene profiling experiments were performed on total RNA from INS-1 cells using an Affymetrix Rat Gene Array as previously described (Zhang et al., 2005).
mRNA levels were quantified by Q-PCR analysis as previously described (Dentin, 2007). Oligonucleotides were designed to target rat gene sequences.

[4] = cited from earlier work
human GLP-1 receptor = human GLP-1 receptor (Homo sapiens, UniProt P43220); details: greater affinity than native GLP-1; cited from earlier work
Sequence of human GLP-1 receptor (P43220 24-463): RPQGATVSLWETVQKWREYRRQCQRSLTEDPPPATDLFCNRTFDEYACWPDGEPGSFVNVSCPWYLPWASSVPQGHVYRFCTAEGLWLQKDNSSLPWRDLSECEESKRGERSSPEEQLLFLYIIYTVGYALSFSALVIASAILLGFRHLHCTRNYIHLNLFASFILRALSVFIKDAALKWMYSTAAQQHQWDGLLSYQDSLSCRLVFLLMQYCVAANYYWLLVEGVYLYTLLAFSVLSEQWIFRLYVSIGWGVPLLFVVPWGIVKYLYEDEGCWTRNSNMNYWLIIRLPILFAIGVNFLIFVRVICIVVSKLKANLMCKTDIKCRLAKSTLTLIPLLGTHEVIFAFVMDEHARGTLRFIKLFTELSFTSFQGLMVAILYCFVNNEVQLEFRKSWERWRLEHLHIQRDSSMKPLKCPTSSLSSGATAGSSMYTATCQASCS

[5] = mildly hyperglycaemic patients with Type 2 diabetes on metformin; cited from earlier work
[6] = plus protein synthesis inhibitor
[7] = prolonged exposure, particularly under high glucose (20 mM)

Compound: COC(=O)CNC(=O)C(=O)OC [DMOG, Dimethyloxalyl Glycine]
- HIF1α protein levels (HIF1α [1]; agent alone): increased
- HIF1α accumulation (HIF1α [2]): triggered
- HRE-luc reporter activation (HIF): triggered

Compound: C=C[C@@]1(C)CC(=O)[C@]2(O)[C@@]3(C)[C@@H](O)CCC(C)(C)[C@@H]3[C@H](O)[C@H](OC(C)=O)[C@@]2(C)O1 [FSK, Forskolin]
- HIF1α accumulation (HIF1α [2]): no effect
- HRE-luc reporter activation (HIF): no effect

Compound: O=S(=O)(NCCNC/C=C/c1ccc(Br)cc1)c1cccc2cnccc12 [H89]
- induction of the HRE-luc reporter by FSK ([3]; co-incubation with inhibitor): blocked
- induction of the HRE-luc reporter by IBMX ([3]; co-incubation with inhibitor): blocked

Compound: CC(C)Cn1c(=O)n(C)c(=O)c2[nH]cnc21 [IBMX]
- HRE-luc reporter activity ([3]; time not stated): increased

Compound: CC(C)n1nc(-c2cc3cc(O)ccc3[nH]2)c2c(N)ncnc21 [PP242]
- effects of FSK on HIF1α induction (HIF1α [1]; co-incubation of mTOR inhibitor with FSK): blocked
- effects of FSK on S6 phosphorylation (mTORC1): blocked
- effects of FSK on cell size (INS-1 cells): blocked

Compound: C[C@@H]1C[C@@H]([C@H](O)CC2CC(=O)NC(=O)C2)C(=O)[C@@H](C)C1 [cycloheximide]
- expression of CREB target genes (INS-1 insulinoma cells; [6]): enhanced
- expression of late phase genes like HMOX1 by FSK (INS-1 insulinoma cells; [6]): reduced

Compound: CO[C@H]1C[C@@H]2CC[C@@H](C)[C@@](O)(O2)C(=O)C(=O)N2CCCC[C@H]2C(=O)O[C@H]([C@H](C)C[C@@H]2CC[C@@H](O)[C@H](OC)C2)CC(=O)[C@H](C)/C=C(\C)[C@@H](O)[C@@H](OC)C(=O)[C@H](C)C[C@H](C)/C=C/C=C/C=C/1C [rapamycin]
- induction of CREB target genes such as NR4A2 (INS-1 insulinoma cells; plus rapamycin): no effect

Compound: Albiglutide
- half-life ([4]; after administration): four to seven

Compound: Exendin-4: GLP-1 agonist
- HRE-luc reporter activity [3, 7]: increased
- HIF1α protein accumulation (HIF1α [1]; [7]): increased

Compound: Lixisenatide
- half-life ([4]; in vivo): 2.5 to 4 h
- affinity for the human GLP-1 receptor compared with native GLP-1 (human GLP-1 receptor): approximately 4 fold
- glycaemic control [5]: significantly improve
